According to PMC9589189, “The human odorant receptor OR10A6 is tuned to the pheromone of the commensal fruit fly Drosophila melanogaster” (iScience, 2022):
Residue numbers refer to the chain shown, from its start. Where two headings read alike, the source gives them in different places.

Key:
Assay in all cases: GloSensor cAMP luminescence, HEK-293
Assay type in all cases: cell-based
[1] = molecular target: T1, OR2W1 (Homo sapiens, UniProt Q9Y3N9, M81V)
T1 construct: full coding region from human genomic DNA in pFN210A, N-terminal IL-6-HaloTag; HEK-293 with RTP1S, G-alpha-olf, G-gamma-13, GloSensor-22F
T1 sequence (Q9Y3N9 1-320 M81V): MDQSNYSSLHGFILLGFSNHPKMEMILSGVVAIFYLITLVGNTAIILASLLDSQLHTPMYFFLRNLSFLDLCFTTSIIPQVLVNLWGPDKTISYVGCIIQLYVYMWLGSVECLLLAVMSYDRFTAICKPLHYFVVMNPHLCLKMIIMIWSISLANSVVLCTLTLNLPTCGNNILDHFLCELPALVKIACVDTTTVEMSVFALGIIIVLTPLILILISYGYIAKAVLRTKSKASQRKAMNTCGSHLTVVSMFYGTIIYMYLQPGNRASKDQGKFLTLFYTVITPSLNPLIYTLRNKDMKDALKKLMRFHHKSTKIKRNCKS
Source text: (§1) GloSensor cAMP luminescence, HEK-293 on OR2W1

[2] = molecular target: T2, OR2W1 (Homo sapiens, UniProt Q9Y3N9, D296N)
T2 construct: full coding region from human genomic DNA in pFN210A, N-terminal IL-6-HaloTag; HEK-293 with RTP1S, G-alpha-olf, G-gamma-13, GloSensor-22F
T2 sequence (Q9Y3N9 1-320 D296N): T1 sequence (Q9Y3N9 1-320 M81V) with V81M, D296N
Source text: as §1

[3] = molecular target: T3, OR2W1 (Homo sapiens, UniProt Q9Y3N9)
T3 construct: full coding region from human genomic DNA in pFN210A, N-terminal IL-6-HaloTag; HEK-293 with RTP1S, G-alpha-olf, G-gamma-13, GloSensor-22F
T3 sequence (Q9Y3N9 1-320): T1 sequence (Q9Y3N9 1-320 M81V) with V81M
Source text: as §1

[4] = molecular target: T4, OR10A6 (Homo sapiens, UniProt Q8NH74)
T4 construct: full coding region from human genomic DNA in pFN210A, N-terminal IL-6-HaloTag; HEK-293 with RTP1S, G-alpha-olf, G-gamma-13, GloSensor-22F
T4 sequence (Q8NH74 1-314): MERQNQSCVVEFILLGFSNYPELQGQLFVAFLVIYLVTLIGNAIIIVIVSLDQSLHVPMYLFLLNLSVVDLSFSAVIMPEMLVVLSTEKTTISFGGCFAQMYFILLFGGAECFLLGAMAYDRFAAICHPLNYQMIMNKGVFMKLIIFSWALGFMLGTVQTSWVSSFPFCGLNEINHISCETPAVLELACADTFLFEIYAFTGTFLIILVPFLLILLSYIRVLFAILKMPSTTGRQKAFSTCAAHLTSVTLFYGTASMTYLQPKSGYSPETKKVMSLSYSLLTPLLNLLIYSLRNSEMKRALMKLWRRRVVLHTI
Source text: (§2) GloSensor cAMP luminescence, HEK-293 on OR10A6

[5] = molecular target: T5, OR10A6 (Homo sapiens, UniProt Q8NH74, A117V/L287P/V140G)
T5 construct: full coding region from human genomic DNA in pFN210A, N-terminal IL-6-HaloTag; HEK-293 with RTP1S, G-alpha-olf, G-gamma-13, GloSensor-22F
T5 sequence (Q8NH74 1-314 A117V/V140G/L287P): T4 sequence (Q8NH74 1-314) with A117V, V140G, L287P
Source text: as §2

[6] = molecular target: T6, OR10A6 (Homo sapiens, UniProt Q8NH74, L287P)
T6 construct: full coding region from human genomic DNA in pFN210A, N-terminal IL-6-HaloTag; HEK-293 with RTP1S, G-alpha-olf, G-gamma-13, GloSensor-22F
T6 sequence (Q8NH74 1-314 L287P): T4 sequence (Q8NH74 1-314) with L287P
Source text: as §2

[7] = read-out: Z4-11Al EC50 [μmol/L] ^a

EC50 ([1]; read-out: Z4-9Al)	EC50 ([2]; read-out: Z4-9Al)	EC50 ([3]; read-out: Z4-9Al)	EC50 [4]	EC50 [5]	EC50 ([6]; read-out: Z4-9Al)	EC50 ([1]; read-out: EC50)	EC50 [2, 7]	EC50 [3, 7]	EC50 [6, 7]	EC50 ([2]; read-out: Z6-11Al)	EC50 ([3]; read-out: Z6-11Al)	EC50 ([6]; read-out: Z6-11Al)	Compound
142 ± 92.4 µM	91.8 ± 46.2 µmol/L	119 ± 23.1 µmol/L	> 1000 µM	> 1000 µM	41.1 ± 14.2 µmol/L								CCCC/C=C\CCC=O [Z4-9Al, (Z)-4-nonenal]
			> 1000 µM	> 1000 µM		> 1000 µM	40.4 ± 12 µmol/L	65.1 ± 35.8 µmol/L	28.2 ± 12.6 µmol/L				CCCCCC/C=C\CCC=O [Z4-11Al, (Z)-4-undecenal]
			> 1000 µM	> 1000 µM		> 1000 µM				138 ± 55 µmol/L	104 ± 27 µmol/L	34.8 ± 9.21 µmol/L	CCCC/C=C\CCCCC=O [Z6-11Al, (Z)-6-undecenal]
